Measured values: ChEMBL document CHEMBL5214937, “Comparative analysis of p-terphenylquinone and seriniquinone derivatives as reactive oxygen species-modulating agents” (Bioorg Med Chem Lett, 2022)
Calls of active or inactive are those of the source. No cut-off for these calls is given here.

Assays:
HL-60 [1] = assay: Antiproliferative activity against human HL-60 cells assessed as inhibition of cell growth incubated for 48 hrs by CCK-8 assay; format: functional, cell-based; settings: HL-60, 48 h
HL-60 [2] = assay: Induction of ROS generation in human HL-60 cells assessed as fold increase in intracellular ROS level at 6.25 uM incubated for 3 hrs by NBT reduction assay relative to control; format: functional
B16 = assay: Antiproliferative activity against mouse B16 cells assessed as inhibition of cell growth incubated for 48 hrs by CCK-8 assay; format: functional, cell-based; settings: B16, 48 h
HL-60 [3] = assay: Antiproliferative activity against human HL-60 cells assessed as reduction in cell viability at 12.5 uM incubated for 48 hrs by CCK-8 assay relative to control; format: functional
HL-60 [4] = assay: Induction of cell morphological changes in human HL-60 cells assessed as chromatin condensation at 3 uM incubated for 48 hrs by Hoechst 33342 staining based microscopic analysis; format: functional
HL-60 [5] = assay: Induction of cell morphological changes in human HL-60 cells assessed as appearance of apoptotic bodies at 3 uM incubated for 48 hrs by Hoechst 33342 staining based microscopic analysis; format: functional
HL-60 [6] = assay: Induction of ROS generation in human HL-60 cells assessed as increase in extracellular ROS level at 6.25 uM incubated for 3 hrs by NBT reduction assay; format: functional, cell-based

| Compound | IC50 (HL-60 [1]) | IC50 (B16) | fold change (FC) (HL-60 [2]) | Activity (HL-60 [3]) | Activity (HL-60 [4]) | Activity (HL-60 [5]) | Activity (HL-60 [6]) |
| --- | --- | --- | --- | --- | --- | --- | --- |
| O=C1C(O)=C(c2ccc(O)cc2)C(=O)C(O)=C1c1ccc(O)cc1 | 5710 nM | – | – | – | – | – | – |
| COc1ccc(C2=C(O)C(=O)C(c3ccc(OC)cc3)=C(O)C2=O)cc1 | > 25000 nM | – | – | – | – | – | – |
| COc1ccc2c(=O)c3oc4c5cc(OC)ccc5c(=O)c(=O)c4c3c(=O)c2c1 | – | – | – | 11% | – | – | – |
| O=C1C(O)=C(c2ccccc2)C(=O)C(O)=C1c1ccccc1 | > 25000 nM | – | – | – | – | – | – |
| COC1=C(c2ccc(OC)cc2)C(=O)C(OC)=C(c2ccc(OC)cc2)C1=O | > 25000 nM | – | – | – | – | – | – |
| COc1ccc2c(=O)c3c(oc4c5ccc(OC)cc5c(=O)c(=O)c43)c(=O)c2c1 | – | – | – | 74% | – | – | – |
| O=c1c2ccccc2c(=O)c2c1[se]c1c(=O)c3ccccc3c(=O)c12 | 2910 nM | 2830 nM | >4 | <10% | Active | Active | – |
| COc1ccc2c(=O)c3sc4c(=O)c5ccc(OC)cc5c(=O)c4c3c(=O)c2c1 | – | – | – | 31.8% | – | – | – |

Continued, in another order:

| IC50 (HL-60 [1]) | IC50 (B16) | Compound | fold change (FC) (HL-60 [2]) | Activity (HL-60 [3]) | Activity (HL-60 [4]) | Activity (HL-60 [5]) | Activity (HL-60 [6]) |
| --- | --- | --- | --- | --- | --- | --- | --- |
| > 25000 nM | – | O=C1C(OC(=O)c2ccccc2)=C(c2ccc(O)cc2)C(=O)C(OC(=O)c2ccccc2)=C1c1ccc(O)cc1 | – | – | – | – | – |
| 1730 nM | 2380 nM | O=c1c2ccccc2c(=O)c2c1sc1c(=O)c3ccccc3c(=O)c12 | >4 | <10% | Active | Active | – |
| 70 nM | 180 nM | O=c1c2ccccc2c(=O)c2c1oc1c(=O)c3ccccc3c(=O)c12 | >4 | <10% | Active | Active | – |
| > 25000 nM | – | COC1=C(c2ccc(O)cc2)C(=O)C(OC)=C(c2ccc(O)cc2)C1=O | – | – | – | – | – |
| 1570 nM | 2950 nM | O=c1c(=O)c2c(oc3c(=O)c4ccccc4c(=O)c32)c2ccccc12 | >4 | <10% | Active | Active | Active |
| 5910 nM | – | COC1=C(c2ccccc2)C(=O)C(OC)=C(c2ccccc2)C1=O [BETULINAN A] | – | – | – | – | – |
